Reference: ChEMBL document CHEMBL1201862, “PubChem BioAssay data set” (2004)
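Exposure lasted 48 hours, with cells grown in 96-well plates and compounds tested at five concentrations. GI50 is the concentration that inhibits growth by half.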 The source made the active and inactive calls. Rule as the data show it: active = GI50 up to about 1.1 µM and inactive = higher.

How the values were obtained:
Assay in all cases: NCI-60 cell line screen, 48 h
[1] = system: RXF 393
[2] = system: SNB-19
[3] = system: HT-29
[4] = system: MDA-MB-231
[5] = system: KM12
[6] = system: LOX IMVI
[7] = system: SK-MEL-5
[8] = system: PC-3
[9] = system: SNB-75
[10] = system: MDA-MB-435
[11] = system: HL-60
[12] = system: Malme-3M
[13] = system: EKVX
[14] = system: 786-0
[15] = system: SF-539
[16] = system: HCC 2998
[17] = system: ACHN

Row | SMILES | GI50 [1] | GI50 [2] | GI50 [3] | GI50 [4] | GI50 [5] | GI50 [6] | GI50 [7] | GI50 [8] | GI50 [9] | GI50 [10] | GI50 [11] | GI50 [12] | GI50 [13] | GI50 [14] | GI50 [15] | GI50 [16] | GI50 [17]
1 | CC(C)(C)[Si](C)(C)OCC1OC(n2cnc3c(N)ncnc32)C2OC(=S)OC12 (centres undefined) | 43.9 µM (inactive) | 52.1 µM (inactive) | 29.4 µM (inactive) | 27.7 µM (inactive) | 35 µM (inactive) | 28.7 µM (inactive) | 17 µM (inactive) | 22 µM (inactive) | 29.3 µM (inactive) | 19.9 µM (inactive) | > 100 µM (inactive) | 23.6 µM (inactive) | – | – | – | – | –
2 | CN(CC(=O)N1CC(CCl)c2ccc([N+](=O)[O-])cc21)CC(=O)N1CC(CCl)c2ccc([N+](=O)[O-])cc21 (centres undefined) | – | > 100 µM (inactive) | > 100 µM (inactive) | > 100 µM (inactive) | > 100 µM (inactive) | > 100 µM (inactive) | 98.9 µM (inactive) | > 100 µM (inactive) | > 100 µM (inactive) | 83.9 µM (inactive) | > 100 µM (inactive) | > 100 µM (inactive) | > 100 µM (inactive) | > 100 µM (inactive) | > 100 µM (inactive) | > 100 µM (inactive) | > 100 µM (inactive)
3 | COc1cc(/C=C2/SC(c3ccccc3)N(c3cccc(Cl)c3)C2=O)cc(OC)c1OC (centres undefined) | 15.9 µM (inactive) | 27.9 µM (inactive) | 25.6 µM (inactive) | 67 µM (inactive) | 32.4 µM (inactive) | 12.1 µM (inactive) | 29.5 µM (inactive) | – | – | 17.6 µM (inactive) | 29.8 µM (inactive) | 24.6 µM (inactive) | 41.3 µM (inactive) | 16.8 µM (inactive) | 22.5 µM (inactive) | 36.3 µM (inactive) | 19.3 µM (inactive)
4 | C1CSCC2(COC2)CS1 | > 100 µM (inactive) | > 100 µM (inactive) | > 100 µM (inactive) | – | > 100 µM (inactive) | > 100 µM (inactive) | > 100 µM (inactive) | > 100 µM (inactive) | > 100 µM (inactive) | > 100 µM (inactive) | – | – | – | – | – | > 100 µM (inactive) | > 100 µM (inactive)
5 | CCOC(=O)c1c(-c2ccccc2)c(-c2ccccc2)cn1C | 3.93 µM (inactive) | > 10 µM (inactive) | 8.67 µM (inactive) | – | > 10 µM (inactive) | – | – | – | > 10 µM (inactive) | > 10 µM (inactive) | > 10 µM (inactive) | > 10 µM (inactive) | > 10 µM (inactive) | > 10 µM (inactive) | > 10 µM (inactive) | > 10 µM (inactive) | > 10 µM (inactive)
6 | CCOC(=O)NNC(=O)NCCCCNC(=O)NNC(=O)OCC | > 100 µM (inactive) | > 100 µM (inactive) | > 100 µM (inactive) | > 100 µM (inactive) | 98.2 µM (inactive) | > 100 µM (inactive) | > 100 µM (inactive) | > 100 µM (inactive) | 0.458 µM (active) | > 100 µM (inactive) | > 100 µM (inactive) | – | > 100 µM (inactive) | > 100 µM (inactive) | > 100 µM (inactive) | – | > 100 µM (inactive)
7 | O=C(N/N=C(/c1ccccc1)C(F)(F)F)c1ccncc1 | 0.923 µM (active) | > 100 µM (inactive) | > 100 µM (inactive) | – | > 100 µM (inactive) | – | > 100 µM (inactive) | > 100 µM (inactive) | > 100 µM (inactive) | > 100 µM (inactive) | > 100 µM (inactive) | > 100 µM (inactive) | – | – | – | > 100 µM (inactive) | –
8 | c1ccc2c(c1)CCCN1CCc3ccccc3C21 (centres undefined) | – | 92.3 µM (inactive) | 29 µM (inactive) | 48.1 µM (inactive) | 45.6 µM (inactive) | 29.6 µM (inactive) | 23.3 µM (inactive) | 41 µM (inactive) | 98.2 µM (inactive) | 19.8 µM (inactive) | 47.1 µM (inactive) | > 100 µM (inactive) | 39.9 µM (inactive) | 80.9 µM (inactive) | 24 µM (inactive) | 44.3 µM (inactive) | 68.9 µM (inactive)
9 | O=c1n(-c2ccccc2)c(=O)n2n1C1C=CC2CCCCCC1 | – | > 100 µM (inactive) | > 100 µM (inactive) | > 100 µM (inactive) | > 100 µM (inactive) | > 100 µM (inactive) | > 100 µM (inactive) | > 100 µM (inactive) | > 100 µM (inactive) | > 100 µM (inactive) | 29.4 µM (inactive) | > 100 µM (inactive) | > 100 µM (inactive) | > 100 µM (inactive) | > 100 µM (inactive) | > 100 µM (inactive) | > 100 µM (inactive)
10 | Nc1c(C(=O)c2ccccc2)nnc2ccccc12 | – | 37.9 µM (inactive) | 25.8 µM (inactive) | 18.2 µM (inactive) | 20.4 µM (inactive) | 32.4 µM (inactive) | 16.7 µM (inactive) | 24.8 µM (inactive) | – | 21.9 µM (inactive) | < 0.01 µM (active) | 27 µM (inactive) | 22.6 µM (inactive) | 30.5 µM (inactive) | 27.4 µM (inactive) | 23.4 µM (inactive) | 24.8 µM (inactive)
11 | Cc1cccc(NC(=O)/C=C/c2ccccc2)c1C | – | > 100 µM (inactive) | > 100 µM (inactive) | > 100 µM (inactive) | > 100 µM (inactive) | > 100 µM (inactive) | > 100 µM (inactive) | > 100 µM (inactive) | 77.6 µM (inactive) | > 100 µM (inactive) | > 100 µM (inactive) | > 100 µM (inactive) | > 100 µM (inactive) | > 100 µM (inactive) | > 100 µM (inactive) | > 100 µM (inactive) | > 100 µM (inactive)
12 | CSc1ccc(-c2cc(-c3nc4ccccc4[nH]3)nc3[nH]c(-c4nc5ccccc5[nH]4)cc(=O)c23)cc1 | 52.5 µM (inactive) | > 100 µM (inactive) | 68.5 µM (inactive) | – | 60.3 µM (inactive) | 42.5 µM (inactive) | – | > 100 µM (inactive) | 56.2 µM (inactive) | 41.1 µM (inactive) | > 100 µM (inactive) | > 100 µM (inactive) | 27.1 µM (inactive) | > 100 µM (inactive) | > 100 µM (inactive) | 5.33 µM (inactive) | 29.4 µM (inactive)
13 | CN(CC(=O)O)c1ncc2c(n1)-c1ccccc1SC2 | – | > 100 µM (inactive) | > 100 µM (inactive) | > 100 µM (inactive) | > 100 µM (inactive) | > 100 µM (inactive) | > 100 µM (inactive) | > 100 µM (inactive) | > 100 µM (inactive) | > 100 µM (inactive) | > 100 µM (inactive) | 50.1 µM (inactive) | > 100 µM (inactive) | > 100 µM (inactive) | > 100 µM (inactive) | – | > 100 µM (inactive)
14 | O=C(c1cccc(OCc2ccccc2)c1OCc1ccccc1)N1CCSC1=S | – | > 46.6 µM (inactive) | 25.2 µM (inactive) | 19.8 µM (inactive) | 5.13 µM (inactive) | 34.2 µM (inactive) | 14 µM (inactive) | 21 µM (inactive) | 5.64 µM (inactive) | 27.2 µM (inactive) | 5.92 µM (inactive) | 23.6 µM (inactive) | 37.8 µM (inactive) | 42.8 µM (inactive) | 33.3 µM (inactive) | 28 µM (inactive) | 33.8 µM (inactive)
15 | NC(=O)N/N=C1\CC2C3CC4C2C4C13 (centres undefined) | – | > 100 µM (inactive) | > 100 µM (inactive) | > 100 µM (inactive) | > 100 µM (inactive) | > 100 µM (inactive) | > 100 µM (inactive) | > 100 µM (inactive) | > 100 µM (inactive) | > 100 µM (inactive) | > 100 µM (inactive) | > 100 µM (inactive) | > 100 µM (inactive) | > 100 µM (inactive) | > 100 µM (inactive) | > 100 µM (inactive) | > 100 µM (inactive)
16 | C=C1C(O)CC[C@]2(C)C1C1OC(C)(C)O[C@]13CC(=O)C(C)=C([C@H]1OC(C)(C)OC12)C3(C)C (some centres undefined) | 27.4 µM (inactive) | > 100 µM (inactive) | > 100 µM (inactive) | > 100 µM (inactive) | > 100 µM (inactive) | > 100 µM (inactive) | > 100 µM (inactive) | – | > 100 µM (inactive) | > 100 µM (inactive) | > 100 µM (inactive) | > 100 µM (inactive) | > 100 µM (inactive) | > 100 µM (inactive) | > 100 µM (inactive) | > 100 µM (inactive) | 92 µM (inactive)
17 | O=C1/C(=C/c2cccc([N+](=O)[O-])c2)CCCc2ccccc21 | – | 15.2 µM (inactive) | 9.84 µM (inactive) | 17 µM (inactive) | 2.42 µM (inactive) | 3.4 µM (inactive) | – | 11 µM (inactive) | 15.1 µM (inactive) | 9.66 µM (inactive) | 4.94 µM (inactive) | 10.3 µM (inactive) | 16 µM (inactive) | 13.7 µM (inactive) | 15.3 µM (inactive) | 10.3 µM (inactive) | 13.7 µM (inactive)
18 | Oc1cc(-c2ccc(F)cc2)nc2ncccc12 | – | 80.2 µM (inactive) | 42.7 µM (inactive) | > 100 µM (inactive) | 31.9 µM (inactive) | 45.5 µM (inactive) | – | – | 20.7 µM (inactive) | – | – | 65.6 µM (inactive) | 39.4 µM (inactive) | – | 41 µM (inactive) | > 100 µM (inactive) | 73.8 µM (inactive)
19 | C[N+]1(CCCC[N+]2(C)CCCCCCC2)CCCCCCC1 | > 100 µM (inactive) | > 100 µM (inactive) | > 100 µM (inactive) | > 100 µM (inactive) | > 100 µM (inactive) | > 100 µM (inactive) | > 100 µM (inactive) | > 100 µM (inactive) | – | > 100 µM (inactive) | > 100 µM (inactive) | > 100 µM (inactive) | > 100 µM (inactive) | > 100 µM (inactive) | – | – | > 100 µM (inactive)
